This test has as its system CEM cells HIV-1 protection, formazan growth assay. The experiment in a line: NCI AIDS Antiviral Assay. The note with it: for IC50: measured here: growth of uninfected CEM cells. In a few lines:
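CEM (human) cells, HIV-1 infected vs uninfected, 5-point dosing, formazan growth read-out. Retest threshold 50% protection.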

Each structure is given as a SMILES string. Activity calls are given as the source filed them.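 How the source made its calls: active means compounds giving half or more protection of infected cells from virus-caused growth loss, again on retest; inactive means the rest.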

Broadly, the EC50 is the concentration at which the effect is half-maximal. Broadly, the IC50 is the concentration at which inhibition is half-maximal. Low readings indicate inhibition by little substance, high ones a need for much substance.

On to `CCOC(=O)c1sc2c(C(=O)OCC)c3ccccn3c2c1C`, for which the result was inactive.
As for `O=C1CCc2ccccc2O1`, the EC50 was greater than 1700 µM and the half-inhibitory concentration (IC50) is 1410 µM.
In the case of `O=C1c2sc(-c3ccc(Cl)cc3)cc2-n2cccc21`, the EC50 was greater than 151 µM and the IC50 was greater than 151 µM.
As to `Cc1cc(C2(c3cc(C)c(O)c(CN(CC(=O)O)CC(=O)O)c3)OS(=O)(=O)c3ccccc32)cc(CN(CC(=O)O)CC(=O)O)c1O`, the EC50 is 93.3 µM and the IC50 is greater than 100 µM.
Regarding `CC(C)(O)[C@@H]1CC[C@@]2(C)CCC[C@H](O)[C@H]2C1`, the result was inactive.
Turning to `CCOP(=O)(OCC)C(Nc1cccc(F)c1)c1ccccc1` (stereo not given), the EC50 is greater than 200 µM and the IC50 was found to be 123 µM.
For `COC(=O)Cc1c([C@@H]2Nc3ccccc3[C@H]2CC(=O)OC)[nH]c2ccccc12`, in that order: greater than 200 µM and 30.2 µM.
For `CCCCCCCCCCCCCC1=C(O)C(=O)C(CC2=C(O)C(=O)C(CCCCCCCCCCCCC)=C(O)C2=O)=C(O)C1=O`, in that order: greater than 17 µM and greater than 17 µM.
The like results for `Cc1ccc(/C=N/n2c(=O)[nH]c3ccccc3c2=O)cc1` were, in that order, greater than 200 µM and greater than 200 µM.
As for `O=[N+]([O-])c1cc(S(=O)(=O)c2ccc(Cl)c([N+](=O)[O-])c2)ccc1Cl`, the EC50 is greater than 200 µM and the IC50 was 2.34 µM.
For `O=C(O)Cc1cccc2c1Oc1ccccc1S2`, in that order: greater than 5620 µM and 204 µM.
The like results for `CS(=O)(=O)OCCN1CCN(C(=O)c2cccc3c(Nc4ccc(S(=O)(=O)N=C(N)N)cc4)c4ccccc4nc23)CC1` were, in that order, greater than 35.5 µM and greater than 35.5 µM.
On to `COc1cccc2c1OC(=O)C(S(=O)(=O)c1ccccc1)C2` (stereo not given), for which the EC50 is greater than 562 µM and the IC50 was greater than 562 µM.
As for `C(=C/P(c1ccccc1)c1ccccc1)/P(c1ccccc1)c1ccccc1.C(=CP(c1ccccc1)c1ccccc1)P(c1ccccc1)c1ccccc1.[Pt]`, the EC50 is greater than 3.63 µM and the IC50 came out at 2.63 µM.
Take `c1ccc(SSc2ccccc2)cc1`: the EC50 is greater than 200 µM and the IC50 amounted to 5.62 µM.
For `CCOC(=O)C1C2CCC(C2)C1(CCl)C(=O)OCC` (stereo not given), in that order: greater than 251 µM and greater than 251 µM.
On to `COc1cc2c(cc1O)CC1c3c(cc(O)c(OC)c3-2)CCN1C` (stereo not given), for which the EC50 is greater than 200 µM and the half-maximal inhibitory concentration (IC50) amounted to 69.2 µM.
The like results for `N#C/C(=C\c1ccc(O)c(O)c1)C(=O)NCCCCCNC(=O)/C(C#N)=C/c1ccc(O)c(O)c1` were, in that order, greater than 200 µM and 11.5 µM.
For `CN(/N=C/c1ccc(Cl)c(Cl)c1)C1=NCCCCN1`, in that order: greater than 200 µM and 26.3 µM.
For `COC(=O)CC12CC(CC(=O)O1)N(C(=O)Nc1ccccc1)O2` (stereo not given), in that order: greater than 77.6 µM and greater than 77.6 µM.
For the compound `O=c1c2cccnc2ncn1CCN1CCCC1`, the result was inactive.
For `O=C(Nc1ccccc1S)OCc1ccccc1`, the 50% effective concentration (EC50) was 34.7 µM and the IC50 worked out at 46.8 µM.
For `COC(=O)/C=C\C(C#N)(C#N)N=Cc1cc(Br)cs1`, in that order: greater than 2 µM and 0.676 µM.
For `Clc1ccc2c(c1)nnn1nccc21`, in that order: greater than 35.5 µM and greater than 35.5 µM.
For `CCOP(=O)(OCC)C(Cc1c[nH]c2ccccc12)C(=O)O` (stereo not given), in that order: greater than 200 µM and greater than 200 µM.
Take `CC(O)(C#N)CC(O)(C(F)(F)Cl)C(F)(F)Cl` (stereo not given): the EC50 was 195 µM and the IC50 was greater than 200 µM.
For `COC(=O)C(Cc1ccc2c(c1)CCC2)Cc1ccc2c(c1)CCC2`, in that order: greater than 200 µM and 112 µM.
As to `C[C@H](CCCN1CCCCC1)[C@H]1CC[C@H]2[C@@H]3CC[C@@H]4C[C@H](O)CC[C@]4(C)[C@H]3CC[C@]12C`, the EC50 is greater than 50.1 µM and the IC50 was determined as 1.82 µM.
Take `COc1ccc(C2(CC(C)C)CCN(S(=O)(=O)c3ccc(C)cc3)C2)cc1OC` (stereo not given): the EC50 is greater than 178 µM and the IC50 came out at 20 µM.
The like results for `COc1cc(N/N=C/C#N)cc(OC)c1OC` were, in that order, greater than 45.7 µM and 2.24 µM.
For `CCCCC/C=C/C/C=C/CCCCCCCC(=O)OCC(COC1OC(CS(=O)(=O)O)C(O)C(O)C1O)OC(=O)CCCCCCC/C=C/C/C=C/CCCCC` (stereo not given), in that order: greater than 27.5 µM and greater than 27.5 µM.
With `CC(C)CC(NC(=O)c1cccc(O)c1O)C(=O)NCc1cc(CNC(=O)C(CC(C)C)NC(=O)c2cccc(O)c2O)cc(CNC(=O)C(CC(C)C)NC(=O)c2cccc(O)c2O)c1` (stereo not given), the outcome was inactive.
With `CC(C)C(=O)C(C)(C)C(=O)C(C)(C)C(=O)OC(C)(C)C`, the EC50 was greater than 200 µM and the IC50 was greater than 200 µM.
As for `Cn1ccnc1CCc1ccc(Cl)c(Cl)c1`, the EC50 was greater than 851 µM and the IC50 is 97.7 µM.
For `COc1ccc2c(c1)OC[C@@H]1c3cc(NC(=O)c4ccccc4)c(OC)cc3N(S(=O)(=O)c3ccccc3)[C@H]21`, in that order: greater than 200 µM and greater than 200 µM.
Consider `COc1cc2c3c(c1OC)-c1c(ccc4c1OCO4)CC3(C#N)N(C(=O)c1ccccc1)CC2` (stereo not given), for which the result was inactive.
In the case of `COc1ccccc1NC(=S)N/N=C(/C)c1ccccn1`, the EC50 is greater than 0.2 µM and the IC50 was 0.0339 µM.
The like results for `Nc1ncnc2c1ncn2C1CCC(COP(=O)(O)O)O1` (stereo not given) were, in that order, 20 µM and greater than 200 µM.
Regarding `C=C[C+](CCCC)C(=O)[O-]`, the EC50 is 589 µM and the half-inhibitory concentration (IC50) was determined as 631 µM.
The like results for `CC(=O)NS(=O)(=O)c1ccc(N=Cc2ccc3c(c2)OCO3)cc1` were, in that order, greater than 200 µM and greater than 200 µM.
The like results for `O=C(Cn1ccnc1[N+](=O)[O-])NCc1ccc(F)cc1` were, in that order, greater than 178 µM and greater than 178 µM.
The like results for `Clc1ccc(-c2nnc3n2NC(c2ccccc2)S3)c(Cl)c1` (stereo not given) were, in that order, greater than 85.1 µM and 69.2 µM.
Turning to `Cc1occc1C(=S)Nc1ccc(Cl)c(COC(C)(C)C)c1`, the concentration for a half-maximal effect (EC50) is 5.13 µM and the concentration for half-maximal inhibition (IC50) amounted to 29.5 µM.
In the case of `CC(=N/NC(=S)N(C)C)/C(=N\NC(=S)N(C)C)c1ccccc1`, the EC50 is greater than 200 µM and the IC50 came out at 3.63 µM.
The like results for `O=C(NCCc1c[nH]c2ccccc12)C1CCCCC1` were, in that order, greater than 200 µM and 67.6 µM.
For `CCOC1CN=C(Nc2cccc3ccccc23)S1` (stereo not given), in that order: greater than 200 µM and 162 µM.
The like results for `Cn1c(=O)sc2cc(C(=S)N3CCC(Cc4ccccc4)CC3)ccc21` were, in that order, greater than 200 µM and 36.3 µM.
Consider `CN(C)C(=O)ON=C1c2ccccc2-c2ccccc21`, for which the EC50 is greater than 200 µM and the half-maximal inhibitory concentration (IC50) is 28.8 µM.
Regarding `O=C1NN(c2ccccc2)C(=O)C2C3c4ccccc4C(c4ccccc43)C12` (stereo not given), the EC50 was greater than 200 µM and the concentration for half-maximal inhibition (IC50) is greater than 200 µM.
For the compound `CC(C)OP(=O)(CCC(=O)C1(O)CCC2C3CCC4=CC(=O)CCC4(C)C3CCC21C)OC(C)C` (stereo not given), the EC50 is greater than 200 µM and the IC50 is 32.4 µM.
The like results for `CC(C)(C)NP(=O)(NC(C)(C)C)NC(C)(C)C` were, in that order, greater than 200 µM and 107 µM.
For `CC12C(=O)N(C3CCC(=O)NC3=O)C(=O)C1C1CCC2C1` (stereo not given), in that order: greater than 200 µM and greater than 200 µM.
Consider `C[N+]1(C)CC2C3C=CC(C3)C2C1` (stereo not given), for which the EC50 is greater than 309 µM and the IC50 was greater than 309 µM.
Regarding `CC[C@H]1OC(=O)[C@H](C)[C@@H](OC2CC(C)(OC)C(O)C(C)O2)[C@H](C)[C@@H](OC2OC(C)CC(N(C)C)C2OC(=O)CCC2CCCC2)[C@](C)(O)C[C@@H](C)C(=O)[C@H](C)[C@@H](O)[C@]1(C)O` (stereo not given in full), the EC50 was greater than 100 µM and the IC50 was 40.7 µM.
The like results for `COc1ccccc1/C=C1\Cc2ccccc2C1=O` were, in that order, greater than 20.9 µM and greater than 20.9 µM.
Take `CNC(=S)SSSSC(=S)NC`: the result was inactive.
Turning to `O=C(C1OC1c1ccc(O)cc1)C12CC3CC(CC(C3)C1)C2` (stereo not given), the EC50 was greater than 200 µM and the IC50 was determined as 52.5 µM.
The like results for `COc1ccccc1C(=O)c1c(NCc2ccccc2)c(=O)c1=O` were, in that order, greater than 200 µM and 93.3 µM.
The like results for `O=C(/C=C/c1ccc(O)c(O)c1)OCCc1ccc2ccccc2c1` were, in that order, greater than 200 µM and 4.68 µM.
The like results for `c1ccc([As](c2ccccc2)c2cccc[c]2[Bi]([c]2ccccc2)[c]2ccccc2)cc1` were, in that order, greater than 10.7 µM and greater than 10.7 µM.
For `NC(=O)CCC(NC(=O)c1ccccc1SC(=O)CCCC[n+]1ccccc1)C(N)=O` (stereo not given), the EC50 is 20.4 µM and the IC50 is greater than 200 µM.
The like results for `COc1ccc(N=NC(=O)NC(CC(C)C)C(N)=O)cc1` (stereo not given) were, in that order, greater than 200 µM and 3.39 µM.
For `COC(=O)C1(C(=O)OC)Cc2ccc(OC)cc2C2=C1C(=O)c1ccccc1C2=O`, in that order: greater than 20 µM and 0.275 µM.
The like results for `Cc1ccc2c(c1)C(=O)C1(C2)Cc2ccc(C)cc2C1=O` were, in that order, 191 µM and greater than 200 µM.
As for `Cc1cn(C2CC(O[Si](C)(C)C(C)(C)C)C(/C=[N+](/[O-])C(C)(C)C)O2)c(=O)[nH]c1=O` (stereo not given), the EC50 is greater than 120 µM and the concentration for half-maximal inhibition (IC50) is 33.9 µM.
The like results for `N#CNC1=NC(Cc2ccccc2)C(=O)N1CCc1c[nH]c2ccccc12` (stereo not given) were, in that order, greater than 200 µM and 31.6 µM.
For `Cc1ccc2[nH]c(N(C)C)nc2c2nc(Cl)nc1-2`, in that order: greater than 200 µM and 117 µM.
With `CCCC1C/C=C/C=C/C=C/C=C/C(OC2OC(C)C(O)C(N)C2O)CC(O)C(C(=O)O)C(O)CC(=O)CC(O)CCCC(=O)CC(O)C(CC)C(=O)O1` (stereo not given), the result was inactive.
Consider `CCN1C[C@]2(C)CC[C@H](OC)C34C1C([C@H](OC(C)=O)[C@@H]32)[C@@]1(OC)C[C@H](OC)[C@H]2C[C@@H]4[C@@H]1[C@H]2O`, for which the EC50 was greater than 77.6 µM and the IC50 is greater than 77.6 µM.
Regarding `O=C1NC(CO)(CO)CO1`, the EC50 was greater than 200 µM and the concentration for half-maximal inhibition (IC50) is greater than 200 µM.
In the case of `Nc1cc(Cl)cc(Cl)c1O`, the EC50 was greater than 162 µM and the IC50 was 120 µM.

(Values after PubChem BioAssay AID179 (DTP/NCI, 2004).)
